In PubChem BioAssay (NCI):
“And” between values parts separate entries of the source, which are not always exact repeats. Equal entries are not always repeated.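 The compound was tested at five concentrations on cells cultured in 96-well plates, with a 48-hour exposure period. Abbreviation: GI50, concentration required for 50% inhibition of growth. TGI: total growth inhibition.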

Assays:
Assay in all cases: NCI-60 cell line screen, 48 h
ACHN renal = test system: ACHN renal
RPMI-8226 leukemia = test system: RPMI-8226 leukemia
IGROV1 ovarian = test system: IGROV1 ovarian
CAKI-1 renal = test system: CAKI-1 renal
SF-539 CNS = test system: SF-539 CNS
LOX IMVI melanoma = test system: LOX IMVI melanoma
SK-MEL-5 melanoma = test system: SK-MEL-5 melanoma
NCI-H460 lung = test system: NCI-H460 lung
UACC-257 melanoma = test system: UACC-257 melanoma
HCT-116 colon = test system: HCT-116 colon

SMILES | TGI (ACHN renal) | TGI (RPMI-8226 leukemia) [µM] | GI50 (IGROV1 ovarian) [µM] | TGI (IGROV1 ovarian) [µM] | TGI (CAKI-1 renal) [µM] | GI50 (SF-539 CNS) [µM] | TGI (SF-539 CNS) | TGI (LOX IMVI melanoma) [µM] | TGI (SK-MEL-5 melanoma) | TGI (NCI-H460 lung) | TGI (UACC-257 melanoma) | TGI (HCT-116 colon) [µM] | GI50 (ACHN renal) [µM] | GI50 (RPMI-8226 leukemia) [µM] | GI50 (CAKI-1 renal) [µM] | GI50 (LOX IMVI melanoma) [µM] | GI50 (SK-MEL-5 melanoma) [µM] | GI50 (NCI-H460 lung) [µM] | GI50 (UACC-257 melanoma) [µM] | GI50 (HCT-116 colon) [µM]
Cc1cc(O)c2c(c1)C(=O)c1cc(O)cc(O)c1C2=O | 73.3 µM | 99.8 | 65.2 | > 100 | 52.9 | 54.2 | > 100 µM | 47.3 | 24.4 µM | > 78.4 µM | > 100 µM | > 58.9 |  |  |  |  |  |  |  | 
O=S(=O)(NC(=S)Nc1ccccc1)c1ccc(N2N=C3c4ccccc4CC3C2c2cccs2)cc1 (stereo not given) | 67.7 µM | 97.6 | 65.3 | > 100 | 43.8 | 22.7 | 46.3 µM | 70.7 | 44.7 µM | > 100 µM | 79.9 µM | 34.8 | 26.4 | 30.3 | 18.5 | 24.4 | 20.8 | 24.6 | 29.1 | 15.1
Nc1nc2c(c3ncccc13)C(c1cccc(Cl)c1)Cc1ncccc1-2 (stereo not given) | 67.1 µM | 41.1 | 5.36 | > 100 | 51.8 | 1.96 | 7.25 µM | 19.5 | 14.7 µM | 22.6 µM | 44.5 µM | 14.5 | 5.13 | 4.19 | 3.04 | 5.12 | 1.34 | 3.03 | 15 | 1.36
C#CCN1CCN(C(=S)N/N=C(\C)c2ccccn2)CC1 | 4.41 µM and 6.2 µM |  | 0.00303 | 3.3 | 12.8 |  | 5.78 µM and 4.56 µM | 6.8 | 5.05 µM and 2.86 µM | 4.17 µM and 2.75 µM | 2.72 µM and 2.53 µM | 1.22 | 0.0578 | 0.00287 | 0.785 | 1.6 |  |  | 0.00558 | 
COc1ccc(-c2cnc(-c3ccc(F)cc3)[nH]2)cc1 | 30.5 µM | > 27.2 | 6.58 | 12.7 | 5.57 | 9.46 | 29.6 µM | 10.8 | 20.7 µM | 29.6 µM | 17.2 µM | 3.39 | 15.2 | 2.39 | 1.82 | 5.49 | 7.81 | 8.37 | 5.17 | 1.36
Cn1ccc(=Nc2ccc(NC(=O)c3ccc(N=c4ccn(C)c5ccc([N+](=O)[O-])cc45)cc3)cc2)cc1 | > 100 µM | > 100 | 11.2 | > 100 | > 100 | 6.21 | 73.2 µM | > 100 | > 100 µM | > 100 µM | 74.5 µM | > 100 | > 100 | 3.54 | > 100 | 5.37 | 20.3 | 22.6 | 12.5 | 3.76
COc1ccc2cc(C(=O)/C=C/c3cccc(Cl)c3Cl)ccc2c1 | 33 µM | > 46.8 | 16.6 | > 100 | 80.6 | 2.68 | 12 µM | > 24.9 | 4.3 µM | > 100 µM | > 100 µM | 19.6 | 3.76 | 5.56 | 5.6 | 0.651 |  | 10.1 | 39.6 | 1
CC1C=C(OC(=O)c2ccccc2)C(=O)C(n2cc(F)c(=O)n(C(=O)c3ccccc3)c2=O)O1 (stereo not given) | > 100 µM | > 100 |  | > 100 | 81.4 |  | > 100 µM | 55 | > 100 µM | > 100 µM | > 100 µM | > 100 |  |  |  |  |  |  |  | 
CCOc1ccccc1NC(=O)CCc1nnc2s/c(=C\CCc3ccccc3)c(=O)n12 | > 100 µM | > 100 |  | > 100 | > 100 |  | > 100 µM | > 100 | > 100 µM | > 100 µM | > 100 µM | > 100 |  |  |  |  |  |  |  | 
CCc1cccc(CC)c1NC(=S)NC(=O)c1ccc(Br)cc1 | > 100 µM | > 100 |  | > 100 | > 96 |  | > 100 µM | > 56.2 | > 71.6 µM | 41.6 µM | > 100 µM | > 100 |  |  |  |  |  |  |  | 
CCOC(=O)/C=C1\SC(=Nc2ccc(C#N)cc2)N(CCN2C(=O)/C(=C/C(=O)OCC)SC2=Nc2ccc(C#N)cc2)C1=O | 17.9 µM | 2.99 | 1.99 | 10.7 | 14.9 | 3.53 | 12.8 µM | 1.28 | 18.9 µM | 7.35 µM | 36.4 µM | 2.38 | 4.62 | 0.415 | 3.57 | 0.585 | 5.43 | 1.81 | 14 | 0.441
CN(C)CCNC(=O)c1cccc2cc3ccccc3nc12 | 2.85 µM | > 25.2 | 1.47 | > 22 | 3.14 | 1.78 | 8.21 µM | 3.48 | 2.54 µM | 1.98 µM | 3.55 µM | 4.75 | 0.437 | 1.89 | 0.62 | 0.802 | 1.25 | 0.426 | 1.6 | 0.531
Nc1ccn([C@H]2C[C@@H](O)[C@@H](CO)S2)c(=O)n1 | > 100 µM | > 100 | > 100 | > 100 | > 100 | > 100 | > 100 µM | > 100 | > 100 µM | > 100 µM | > 100 µM | > 100 | 8.65 | > 100 | 8.4 | > 100 | > 42.3 | 34.9 | > 100 | 14.1
COc1cc2c3c(n(CCCN4CCN(C)CC4)c(=O)c2cc1OC)-c1cc2c(cc1C3=O)OCO2 | 22.4 µM | 14.1 | 7.05 | 80.6 | 23.7 | 17.7 | 38.2 µM | 20.4 | 32.2 µM | 28.2 µM | > 100 µM | 11.5 | 10.1 | 2.39 | 10.3 | 3.81 | 14.2 | 5.8 | > 100 | 1.49
COc1cc2cc(Oc3ccc(NC(=O)Nc4ccccc4)cc3)c(C)nc2cc1OCCN1CCCCC1 | 10.3 µM | 10.8 | 5.68 | 11 | 10 | 5.46 | 10.3 µM | 10.1 | 10.1 µM | 11.2 µM | 12.4 µM | 10.1 | 5.74 | 3.52 | 4.94 | 5.38 | 5.47 | 6.05 | 6.46 | 4.77
CC[N+](CC)=c1ccc2nc3c(cc(NCc4ccccc4)c4ccccc43)oc-2c1 | 1.98 µM | 0.539 | 0.258 | 1.67 | 1.54 | 4.19 | 21.2 µM | 0.299 | 0.28 µM | 0.435 µM | 0.387 µM | 0.709 | 0.398 | 0.0949 | 0.231 | 0.127 | 0.147 | 0.201 | 0.159 | 0.154
CCC(C(=O)[O-])C(=O)[O-].CCC(C(=O)[O-])C(=O)[O-].N.N.NCCCCCN.[Pt+4].[Pt+4] | > 100 µM | > 100 | > 100 | > 100 | > 100 | > 100 | > 100 µM | > 100 | > 100 µM | > 100 µM | > 100 µM | > 100 | 72.6 | > 100 | > 100 | > 100 | > 100 | 21.3 | > 100 | > 100
FC(F)(F)c1ccc(C=NC23CC4CC(CC(C4)C2)C3)cc1 | > 100 µM | > 100 |  | > 100 | > 100 |  | > 100 µM | > 100 | > 100 µM | > 100 µM | > 100 µM | > 100 |  |  |  |  |  |  |  | 
C=CCNC1=C(C(=O)OCC)C(=O)CO1 | > 100 µM | > 100 |  | > 100 | > 100 |  | > 100 µM | > 100 | > 100 µM | > 100 µM | > 100 µM | > 100 |  |  |  |  |  |  |  | 
Nc1c(C(=O)c2cccc(OCCN3CCOCC3)c2)cnn1-c1ccc(F)cc1 | > 25 µM | > 25 | > 25 | > 25 | > 25 | > 25 | > 25 µM | > 25 | > 25 µM | > 25 µM | > 25 µM | > 25 | > 25 | > 25 | > 25 | > 25 | > 25 | > 25 | > 25 | > 25
C(CCc1nnc2c(n1)CCCC2)Cc1nnc2c(n1)CCCC2 | > 100 µM | > 100 |  | > 100 | > 100 |  | > 100 µM | > 100 | > 100 µM | > 100 µM |  | > 100 |  |  |  |  |  |  |  | 
Cc1cc(=O)oc2cc(OC(=O)Nc3ccc(Cl)c(Cl)c3)ccc12 | 78.1 µM | 36.2 |  | 60.5 | 86.4 |  | 38.5 µM | 37.2 | 29.7 µM | 89.6 µM | 84.2 µM | 40.7 |  |  |  |  |  |  |  | 
CC(C)(C)OC(=O)NCCCCCCCCn1c2c(c3ccccc3c1=O)C(=O)c1ccccc1-2 | > 30 µM | > 50 | 14.3 | > 50 | > 36.5 | 9.64 | 29.6 µM | > 50 | > 50 µM | > 50 µM | > 50 µM | > 50 | 10.9 | > 50 | 11.8 | > 32 | > 40 | > 50 | > 50 | 26.8
O=C(O)CCC1COc2ccccc2O1 (stereo not given) | > 10 µM | > 10 |  | > 10 | > 10 |  | > 10 µM | > 10 | > 10 µM | > 10 µM | > 10 µM | > 10 |  |  |  |  |  |  |  | 
O=C(Oc1ccc([N+](=O)[O-])cc1)N1CCN(Cc2cccc(Oc3ccccc3)c2)CC1 | > 100 µM | > 100 | > 100 | > 100 | > 100 | > 100 | > 100 µM | > 100 | 58.7 µM | > 100 µM | > 100 µM | > 100 | > 100 | 13.1 | > 73.6 | > 82.6 | 18.5 | 99.3 | > 76.9 | 44.9
O=C(CC/C(C/C(=N/O)c1ccc(F)cc1)=N/O)N(Cc1ccccc1)Cc1ccccc1 | > 100 µM | > 100 |  | > 100 | > 100 |  | > 100 µM | > 100 | > 100 µM | > 100 µM | > 100 µM | > 100 |  |  |  |  |  |  |  | 
Cc1ccc(S(=O)(=O)N2CCC3(C(/C=C/c4ccccc4)=Nc4ccccc43)C2c2ccccc2)cc1 (stereo not given) | > 100 µM | > 100 |  | 24.6 | > 100 |  | > 100 µM | > 100 | > 100 µM | > 100 µM | > 100 µM | > 100 |  |  |  |  |  |  |  | 
NC(=O)c1csc(C2C=CC(CO)O2)n1 (stereo not given) | > 100 µM | > 100 |  | > 100 | > 100 |  | > 100 µM | > 100 |  | > 100 µM | > 100 µM | > 100 |  |  |  |  |  |  |  | 
O=C(Nc1cnn2ccc(N3CCC[C@@H]3c3cc(F)ccc3F)nc12)N1CC[C@H](O)C1 | > 100 µM | > 100 | > 100 | > 100 | > 100 | > 100 | > 100 µM | > 100 | > 100 µM | > 100 µM |  | > 100 | > 100 | > 100 | > 100 | > 100 | > 100 | > 100 |  | > 100
O=C1c2cccnc2-c2nc(/C=C/c3ccccc3)cc3c2c1nc1ccccc13 | 5.54 µM | 5.12 | 1.59 | 4.44 | 10.3 | 3.02 | 7.77 µM | 6.92 |  | 1.27 µM | 6.3 µM | 6.14 | 1.94 | 1.2 | 3.05 | 2.76 |  | 0.354 | 2.35 | 1.95
